Values of other authors in patent publication US20220117866A1, “ANHYDROUS ALCOHOL-FREE SILKY FRAGRANCE FORMULATION” (AKI, Inc., priority 2020, published 2022).
Structures can show the parent of a compound that is named as a salt.

Test system: laboratory animals
Settings: oral, dermal and inhalation routes

SMILES: CCOC(=O)CC(O)(CC(=O)OCC)C(=O)OCC [Triethyl Citrate, Triethyl 2-hydroxypropane-1,2,3-tricarboxylate]
- acute toxicity: low
